Test results: patent US10167283B2, “β-lactamase inhibitors and uses thereof” (priority 2015, dated 2019)
Counter-ions that a name gives are not always drawn. Like-named read-outs stand apart in the source and are kept apart here.

Legend:
OXA-10 = target: T1, OXA-10 (Pseudomonas aeruginosa, UniProt P14489); assay: β-lactamase inhibition, Nitrocefin hydrolysis; type: biochemical; settings: Experiment 3; enzyme 10 nM, Nitrocefin 0.1 mM; read-out: IC50 Type D OXA-10
T1 construct: purchased
Summary of the method: (§1)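 Nitrocefin hydrolysis by each β-lactamase was followed as real-time absorbance, with the enzyme stock diluted 1000-fold in reaction solution. Inhibitors were tested at final concentrations from 100 μM down to 0.095 nM in four-fold steps. IC50 was calculated from the hydrolysis rates across inhibitor concentrations.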

[1] = tested on: Enterobacter cloacae 7513ecl-314 (AmpC); assay: In vitro antibacterial activity on clinically separated CRE strain, agar dilution MIC; type: cell-based
Summary of the method: (§2)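 Susceptibility is tested on agar by dilution as set out in CLSI M100-S23. The value is the lowest inhibitory concentration, μg/mL.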

[2] = tested on: Klebsiella pneumoniae 7460kpn-607 (NDM, ESBLs); assay: as above; type: cell-based; settings: Table 3, 7460kpn-607 Klebsiella pneumoniae
Summary of the method: as §2

[3] = tested on: Citrobacter freundii 7521cfr-169 (NDM, ESBLs, AmpC); assay: as above; type: cell-based; settings: Table 3, 7521cfr-169 Citrobacter freundii
Summary of the method: as §2

[4] = tested on: Escherichia coil 7440eco-641 (ESBLs); assay: as above; type: cell-based; settings: Table 3, 7440eco-641 Escherichia coil
Summary of the method: as §2

[5] = tested on: Klebsiella pneumoniae 7477kpn-624 (NDM, ESBLs); assay: as above; type: cell-based; settings: Table 3, 7477kpn-624 Klebsiella pneumoniae
Summary of the method: as §2

[6] = tested on: Klebsiella pneumoniae 7526kpn-640 (KPC, ESBLs); assay: as above; type: cell-based; settings: Table 3, 7526kpn-640 Klebsiella pneumoniae
Summary of the method: as §2

[7] = tested on: Enterobacter cloacae 7495ecl-296 (IMP, ESBLs, AmpC); assay: as above; type: cell-based; settings: Table 3, 7495ecl-296 Enterobacter cloacae
Summary of the method: as §2

[8] = tested on: Klebsiella pneumoniae 7484kpn-631 (IMP, ESBLs); assay: as above; type: cell-based
Summary of the method: as §2

[9] = tested on: Citrobacter freundii 7520cfr-167 (NDM, OXA-10, ESBLs); assay: as above; type: cell-based; settings: Table 3, 7520cfr-167 Citrobacter freundii
Summary of the method: as §2

[10] = tested on: Enterobacter cloacae 7511ecl-312 (NDM, ESBLs, AmpC); assay: as above; type: cell-based; settings: Table 3, 7511ecl-312 Enterobacter cloacae
Summary of the method: as §2

[11] = tested on: Enterobacter cloacae 7494ecl-295 (NDM, ESBLs, AmpC); assay: as above; type: cell-based; settings: Table 3, 7494ecl-295 Enterobacter cloacae
Summary of the method: as §2

[12] = cited from earlier work
KPC-2 = target: T2, KPC-2 (Klebsiella pneumoniae, UniProt Q9F663); assay: β-lactamase inhibition, Nitrocefin hydrolysis; type: biochemical; settings: Nitrocefin 0.1 mM
T2 construct: purchased
T2 sequence (Q9F663 25-293, looked up, species assumed): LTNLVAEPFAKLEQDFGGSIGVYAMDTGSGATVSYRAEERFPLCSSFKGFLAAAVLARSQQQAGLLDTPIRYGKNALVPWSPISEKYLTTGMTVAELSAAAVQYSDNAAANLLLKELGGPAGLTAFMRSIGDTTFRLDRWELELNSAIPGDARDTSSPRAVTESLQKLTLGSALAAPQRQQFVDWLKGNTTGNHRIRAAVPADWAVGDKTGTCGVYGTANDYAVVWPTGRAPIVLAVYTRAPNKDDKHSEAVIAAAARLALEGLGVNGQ
Summary of the method: as §1

CTX-M-1 = target: T3, CTX-M-1 (Escherichia coli, UniProt P28585); assay: β-lactamase inhibition, Nitrocefin hydrolysis; type: biochemical; settings: Experiment 2; enzyme 0.2 nM, Nitrocefin 0.1 mM
T3 construct: purchased
T3 sequence (P28585 29-291): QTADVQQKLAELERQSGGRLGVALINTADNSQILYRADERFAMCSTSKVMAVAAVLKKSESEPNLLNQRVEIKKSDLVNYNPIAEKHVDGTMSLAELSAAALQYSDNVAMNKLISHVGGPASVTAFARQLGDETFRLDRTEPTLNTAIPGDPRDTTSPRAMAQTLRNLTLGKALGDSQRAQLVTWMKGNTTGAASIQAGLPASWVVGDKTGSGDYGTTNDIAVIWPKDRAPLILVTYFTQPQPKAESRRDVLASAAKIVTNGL
Summary of the method: as §1

TEM-1 = target: T4, TEM-1 (Escherichia coli, UniProt P62593); assay: β-lactamase inhibition, Nitrocefin hydrolysis; type: biochemical; settings: Nitrocefin 0.1 mM
T4 construct: purchased
T4 sequence (P62593 24-286 limits assumed): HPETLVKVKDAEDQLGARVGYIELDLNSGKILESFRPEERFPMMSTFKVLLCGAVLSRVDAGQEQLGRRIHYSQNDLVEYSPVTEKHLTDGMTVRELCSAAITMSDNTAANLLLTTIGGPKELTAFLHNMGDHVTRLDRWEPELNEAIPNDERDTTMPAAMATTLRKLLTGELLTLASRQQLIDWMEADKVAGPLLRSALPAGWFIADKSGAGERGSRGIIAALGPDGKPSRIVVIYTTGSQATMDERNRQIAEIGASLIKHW
Summary of the method: as §1

[13] = Table 3, 7513ecl-314 Enterobacter cloacae
[14] = Table 3, 7484kpn-631 Klebsiella pneumoniae

T1 sequence (P14489 20-266, species assumed): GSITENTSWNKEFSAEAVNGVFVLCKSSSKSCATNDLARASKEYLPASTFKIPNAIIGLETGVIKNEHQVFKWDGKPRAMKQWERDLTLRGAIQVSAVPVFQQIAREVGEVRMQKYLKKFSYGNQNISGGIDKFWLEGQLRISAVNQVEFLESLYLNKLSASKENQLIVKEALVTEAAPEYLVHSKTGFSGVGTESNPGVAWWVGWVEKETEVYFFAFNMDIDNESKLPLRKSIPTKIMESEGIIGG

For `NC(=O)[C@@H]1CC[C@@H]2CN1C(=O)N2OS(=O)(=O)O` [AVI sodium salt, Avibactam, reference compound], the IC50 (OXA-10) was 25.9 µM, the MIC [1, 13] was greater than 8 µg/mL and the MIC ([1]; first Table 4, 7513ecl-314 Enterobacter cloacae) was 32 µg/mL. For the same compound, the MIC [2] was greater than 8 µg/mL, the MIC [3] was 8 µg/mL and the MIC [4] was 8 µg/mL. For the same compound, the MIC [5] was greater than 8 µg/mL, the MIC [6] was greater than 8 µg/mL and the MIC [7] was greater than 8 µg/mL. For the same compound, the MIC [8, 14] was greater than 8 µg/mL, the MIC ([8]; first Table 4, 7484kpn-631 Klebsiella pneumoniae) was 16 µg/mL and the MIC [9] was greater than 8 µg/mL. It also gave an MIC [10] greater than 8 µg/mL and an MIC [11] greater than 8 µg/mL.
For `O=C(NC1CCNCC1)[C@@H]1CC[C@@H]2CN1C(=O)N2OS(=O)(=O)O` [MK-7655, reference compound], the T1/2 in clinic [12] is listed as 1.7 h, the MIC [1, 13] is listed as greater than 8 µg/mL and the MIC [2] is listed as greater than 8 µg/mL. It also gave an MIC [3] greater than 8 µg/mL, an MIC [4] greater than 8 µg/mL and an MIC [5] greater than 8 µg/mL. It also gave an MIC [6] greater than 8 µg/mL, an MIC [7] greater than 8 µg/mL and an MIC [8, 14] greater than 8 µg/mL. The MIC [9] was greater than 8 µg/mL, the MIC [10] was greater than 8 µg/mL and the MIC [11] was greater than 8 µg/mL.
For `O=C(NC1CC2(CNC2)C1)[C@@H]1CC[C@@H]2CN1C(=O)N2OS(=O)(=O)O` [Compound 2, (2S,5R)-2-((2-azaspiro[3.3]heptan-6-yl)carbamoyl)-7-oxo-1,6-diazabicyclo[3.2.1]octan-6-yl hydrogen sulfate], the IC50 (KPC-2; Experiment 1, read-out: IC50 Type A KPC-2) was 61.1 nM, the IC50 (KPC-2; Experiment 2, enzyme 1.28 nM, read-out: IC50 KPC-2) was 34.7 nM and the IC50 (CTX-M-1) was 42.3 nM. For the same compound, the IC50 (TEM-1; Experiment 1, enzyme 0.25 nM, read-out: IC50 ESBLs type TEM-1) was 28.5 nM, the IC50 (TEM-1; Experiment 2, enzyme 1 nM, read-out: IC50 TEM-1) was 15.2 nM and the IC50 (OXA-10) was 12.2 µM. It also gave an MIC [1, 13] of 2 µg/mL, an MIC [2] of 2 µg/mL and an MIC [3] of 2 µg/mL. For the same compound, the MIC [4] was 2 µg/mL, the MIC [5] was 2 µg/mL and the MIC [6] was 4 µg/mL. For the same compound, the MIC [7] was 2 µg/mL, the MIC [8, 14] was 2 µg/mL and the MIC [9] was 2 µg/mL. It also gave an MIC [10] of 2 µg/mL and an MIC [11] of 2 µg/mL.
